The source of these data is patent US8748116B2, “1L1RL-1 as a cardiovascular disease marker and therapeutic target” (The Brigham and Women s Hospital, Inc., priority 2002, dated 2014).

Assay [1] concerns IL1RL-1 mRNA expression. Put plainly: Northern blot of IL1RL-1 (T1/ST2) mRNA induction in cultured neonatal rat cardiac myocytes, with or without 8% cyclic mechanical strain. In kind it is cell-based. To be noted: for effect on the induction of IL1RL-1 mRNA expression by 8% mechanical strain: FIG. 4, applied during strain, actinomycin D 5 μg/ml (2 and 4 hours), cyclohexamide 10 μg/ml; for induction of IL1RL-1 mRNA expression in the absence of mechanical strain: FIG. 2, 3 hours, Ang II 50 nM; for induction of IL1RL-1 mRNA expression in the absence of mechanical strain / rank order potency for the induction of IL1RL-1 mRNA expression / induction of IL1RL-1 mRNA expression by the agent alone: IL-1β 10 ng/ml; for induction of IL1RL-1 mRNA expression in the absence of mechanical strain / rank order potency for the induction of T1/ST2 mRNA expression: PMA 200 nM; for rank order potency for the induction of IL1RL-1 mRNA expression: PMA 100 ng/ml, 8% strain; for induction of IL1RL-1 mRNA expression by the agent alone: PMA 100 ng/ml in the absence of strain; for rank order potency for the induction of T1/ST2 mRNA expression: strain 8%, 1 and 3 hours. The text has this:
The approach to mechanical stimulation used an apparatus that has multiple platens that contact the underside of silicone elastomer membranes to apply a spatially isotropic biaxial strain profile to the membrane (Schaffer J L, et al., J Orthop Res, 1993, 12:709-719; and U.S. Provisional Patent application 60/144,134 filed on Jul. 16, 1999 entitled “AN APPARATUS FOR STUDYING MYOCARDIAL MECHANICAL OVERLOAD HYPERTROPHY AND USES THEREFOR, by Richard T. Lee. Six individual 78 mm membranes can be stretched at once with varying amplitudes of strain by controlling displacement of each platen with a stepper motor. Measured Green strains are accurate to ˜±0.25% at strains from 1-14% (Cheng G C, et al., Circ Res, 1997, 80:28-36; Brown T D, J Biomechanics, 2000, 33:3-14). Throughout this study, 8% biaxial strain was used.
Neonatal rat ventricular myocytes (NRVM) from 1-day old Sprague-Dawley rats were isolated by previously described methods (Springhorn J P, and Claycomb W C., Biochem J, 1989; 258:73-78; Arstall M A, et al., J Mol Cell Cardiol, 1998, 30:1019-25). NRVM were plated on the coated membrane dish at a density of 2,000,000 cells/dish in DMEM containing 7% FCS and incubated 24 h. Approximate cell confluence was 85-90%. NRVM were then made quiescent by washing with 10 ml of Hanks' balanced salt solution (HBSS, 138 mM NaCl, 5.3 mM KCl, 4.0 mM NaHCO3, 1.3 mM CaCl2, 0.5 mM MgCl2, 0.4 mM MgSO4, 0.4 mM KH2PO4, 0.3 mM Na2HPO4, 5.6 mM glucose; Life Technologies, Inc., Rockville, Md.) twice and incubating with 26 ml of DMEM containing 0.2% FCS for 48-72 hours.
The cDNA clones for differentially expressed genes were obtained by PCR using the GenBank sequences. Each clone was sequenced from both 5′ and 3′ ends to confirm identity. Positive elements in the DNA microarray were confirmed by Northern blot hybridization analysis in at least three independent experiments using three different sources of NRVMs. Total RNA was isolated by the guanidium thiocyanate and phenol chloroform method (Chomcyznski, et al., Anal. Biochem., 1987, 162:156-159). For Northern blotting, 15 μg RNA was loaded on a 1.0% agarose-formaldehyde gel (2.0 mol/l), transferred to a nylon membrane (Amersham Pharmacia Biotech AB, Piscataway, N.J.), and UV cross-linked with a UV Stratalinker (Stratagene, Inc., La Jolla, Calif.). Each probe was hybridized with ExpressHyb solution (Clontech Labs., Inc., Palo Alto, Calif.) at 68° C. for 1 hour. The membrane was washed with 2×SSC, 0.05% SDS solution for 30 to 40 minutes and three times at room temperature and 0.1×SSC, 0.1% SDS solution with continuous shaking at 50° C. for 40 minutes. The membrane was exposed to film at −80° C., and radiographs were scanned and analyzed with Optimas 5.0 software (Optimas Co./Media Cybernetics, Silver Springs, Md.). Densitometric units were normalized to the ethidium-stained 28S ribosomal subunit on the membrane.
T1/ST2 mRNA is induced by mechanical strain in cultured neonatal cardiac myocytes. Neonatal rat ventricular myocytes were isolated by collagenase digestion, plated on fibronectin-coated silicone membrane dishes at a density of 3.5 million cells/dish in 13 ml media as previously described (Yamamoto K, et al. J Biol. Chem. 1999; 274:21840-21846). This technique yields cultures with ≧95% myocytes. Mechanical deformation was applied using a device that provides uniform biaxial cyclic strain as previously described (Yamamoto K, et al. J Biol. Chem. 1999; 274:21840-21846). RNA was extracted (Qiagen) and Northern blotting was performed using as a probe a ^32P-labelled 600 bp PCR fragment specific to rat T1/ST2. Maximal induction occurs at 3 hours, is sustained for 9 hours and declines by 15 hours. […]

Assay [2] concerns T1/ST2 mRNA. Put plainly: T1/ST2 mRNA induction in human adult vascular smooth muscle cells. In kind it is cell-based.

“Also recorded” adds a separate entry of the source. Starred links: 1 amine or outer side, 2 acyl side, 3 side chain; linkers in the order of their positions; H or OH if unused. Positions of bridges follow the written chain, without caps; N, C: chain ends. Non-standard residues stand in square brackets, D forms with d. Residues, ends and D or L forms follow the SMILES beside them. Chains are numbered I, II in the order given. Actinocin(9to1) = Cc1c2oc3c(C)ccc(C(=O)[*:1])c3nc-2c(C(=O)[*:2])c(N)c1=O; NMeV = CN[C@H](C(=O)O)C(C)C; Sar = CNCC(=O)O

Turning to `Cc1c2oc3c(C)ccc(C(=O)N[C@@H]4C(=O)N[C@H](C(C)C)C(=O)N5CCC[C@H]5C(=O)N(C)CC(=O)N(C)[C@@H](C(C)C)C(=O)O[C@@H]4C)c3nc-2c(C(=O)N[C@@H]2C(=O)N[C@H](C(C)C)C(=O)N3CCC[C@H]3C(=O)N(C)CC(=O)N(C)[C@@H](C(C)C)C(=O)O[C@@H]2C)c(N)c1=O` [Actinomycin D, actinomycin D] (I: T[dV]P[Sar][NMeV] / II: T[dV]P[Sar][NMeV]; ester I:1-I:C, II:1-II:C; linker I:N-II:N via Actinocin(9to1)), in assay [1], the “effect on the induction of IL1RL-1 mRNA expression by 8% mechanical strain” value is given as “blocked the induction”.
As to `OO` [H2O2, hydrogen peroxide], the “effect on the strain-induced induction of IL1RL-1” value in assay [1] (FIG. 3, 8% mechanical strain, H2O2 100 uM) was “blocks the strain-induced induction”. Moreover, the “induction of IL1RL-1 in the absence of strain” value in assay [1] (FIG. 3, H2O2 100 uM) is “does not induce”.
`CCCCCCCCCCCCCC(=O)O[C@@H]1[C@@H](C)[C@@]2(O)[C@@H](C=C(CO)C[C@]3(O)C(=O)C(C)=C[C@@H]23)[C@@H]2C(C)(C)[C@]12OC(C)=O` [PMA]: in assay [2], the “induction of T1/ST2 mRNA” value was “not”. Also, in assay [1], the “induction of IL1RL-1 mRNA expression in the absence of mechanical strain” value (“induction … of mechanical strain” below) is on record as “associated with an induction”. Also, in assay [1] (FIG. 5), the “rank order potency for the induction of IL1RL-1 mRNA expression” value was “PMA>strain>IL-1β” and the “induction of IL1RL-1 mRNA expression by the agent alone” value was “strongest induction”. In assay [1] (FIG. 9, interleukin-1 10 ng/ml), the “rank order potency for the induction of T1/ST2 mRNA expression” value was “PMA>strain>interleukin-1β; also recorded: PMA>strain>IL-1”.
Consider `O=S(=O)(O)c1cc(O)c(O)c(S(=O)(=O)O)c1` [TIRON], for which the “mRNA expression of IL1RL-1 in the absence and presence of strain” value in assay [1] (FIG. 3, TIRON 10 mM) is “slightly attenuated”.
`C[C@@H]1C[C@@H]([C@H](O)CC2CC(=O)NC(=O)C2)C(=O)[C@@H](C)C1` [cyclohexamide]: the “effect on the induction of IL1RL-1 mRNA expression by 8% mechanical strain” value in assay [1] was “blocked the induction”.
As to angiotensin II, the “induction … of mechanical strain” value in assay [1] is on record as “did not induce”.
interleukin-1β [IL-1β]: the “induction of T1/ST2 mRNA” value in assay [2] is reported as “induced”. Also, in assay [1], the “induction of T1/ST2 RNA in cardiac myocytes” value was “induce T1/ST2 RNA” and the “induction … of mechanical strain” value is listed as “associated with an induction”. For the same compound, in assay [1] (FIG. 5, 8% strain plus IL-1β 10 ng/ml), the “induction of IL1RL-1 by mechanical strain in the presence of IL-1β” value was “not further increased”. In addition, in assay [1] (FIG. 5), the “rank order potency for the induction of IL1RL-1 mRNA expression” value is on record as “PMA>strain>IL-1β” and the “induction of IL1RL-1 mRNA expression by the agent alone” value is “induced”. The “induction of T1/ST2 by mechanical strain in the presence of interleukin-1β” value in assay [1] (FIG. 9, 8% strain plus interleukin-1 10 ng/ml) was “not further increased”. Moreover, the “rank order potency for the induction of T1/ST2 mRNA expression” value in assay [1] (FIG. 9, interleukin-1 10 ng/ml) is “PMA>strain>interleukin-1β”. Moreover, the “rank order potency for the induction of T1/ST2 mRNA expression” value in assay [1] (FIG. 9, interleukin-1 10 ng/ml, listed as IL-1) is reported as “PMA>strain>IL-1”. Also, the “induction of T1/ST2 mRNA in the presence of infection with control adenovirus” value in assay [1] (FIG. 10, interleukin-1 10 ng/ml, 4 hours) was “induced T1/ST2 mRNA”.
